Key:
Assay in all cases: relative viability (nuclei count vs DMSO), 5 days (fraction); higher = more cells survive
NCI-H647 = system: NCI-H647
In short: (§1)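 One day after seeding in 1536-well plates, lung cancer cell lines were dosed by pin tool. Dosing was either single-drug or a fixed anchor-drug dose plus five library-drug doses (not always all listed) in √10 steps. After 5 days, nuclei were stained in one fix-and-stain step and counted on 4× images, and relative viability is the nuclei count of treated wells over that of vehicle wells, given as the median of duplicate plates.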

NCI-H1395 = system: NCI-H1395
In short: as §1

LCLC-97TM1 = system: LCLC-97TM1
In short: as §1

NCI-H838 = system: NCI-H838
In short: as §1

NCI-H2085 = system: NCI-H2085
In short: as §1

NCI-H322M = system: NCI-H322M
In short: as §1

NCI-H2405 = system: NCI-H2405
In short: as §1

201T = system: 201T
In short: as §1

NCI-H661 = system: NCI-H661
In short: as §1

NCI-H1355 = system: NCI-H1355
In short: as §1

LU99A = system: LU99A
In short: as §1

NCI-H650 = system: NCI-H650
In short: as §1

NCI-H2009 = system: NCI-H2009
In short: as §1

NCI-H23 = system: NCI-H23
In short: as §1

NCI-H2228 = system: NCI-H2228
In short: as §1

NCI-H2126 = system: NCI-H2126
In short: as §1

HCC-78 = system: HCC-78
In short: as §1

BEN = system: BEN
In short: as §1

EPLC-272H = system: EPLC-272H
In short: as §1

PC-14 = system: PC-14
In short: as §1

HCC-15 = system: HCC-15
In short: as §1

NCI-H460 = system: NCI-H460
In short: as §1

SMILES: Cc1csc(=NC2CCCCC2)n1/N=C/c1ccc(O)c(O)c1O [MIM1] + Cc1nc(NC(=O)N2CCC[C@H]2C(N)=O)sc1-c1ccnc(C(C)(C)C(F)(F)F)c1 [Alpelisib] (partner 2 µM)
- relative viability (NCI-H647; first compound 0.2 µM): 1.23
- relative viability (NCI-H647; first compound 0.6325 µM): 1.14
- relative viability (NCI-H647; first compound 2 µM): 1.12
- relative viability (NCI-H647; first compound 6.325 µM): 0.991
- relative viability (NCI-H647; first compound 20 µM): 0.213
- relative viability (NCI-H1395; first compound 0.2 µM): 0.947
- relative viability (NCI-H1395; first compound 0.6325 µM): 1.06
- relative viability (NCI-H1395; first compound 2 µM): 0.911
- relative viability (NCI-H1395; first compound 6.325 µM): 0.537
- relative viability (NCI-H1395; first compound 20 µM): 0.407
- relative viability (LCLC-97TM1; first compound 0.2 µM): 0.255
- relative viability (LCLC-97TM1; first compound 0.6325 µM): 0.258
- relative viability (LCLC-97TM1; first compound 2 µM): 0.207
- relative viability (LCLC-97TM1; first compound 6.325 µM): 0.26
- relative viability (LCLC-97TM1; first compound 20 µM): 0.129
- relative viability (NCI-H838; first compound 0.2 µM): 0.974
- relative viability (NCI-H838; first compound 0.6325 µM): 1
- relative viability (NCI-H838; first compound 2 µM): 0.83
- relative viability (NCI-H838; first compound 6.325 µM): 0.827
- relative viability (NCI-H838; first compound 20 µM): 1.09
- relative viability (NCI-H2085; first compound 0.2 µM): 0.946
- relative viability (NCI-H2085; first compound 0.6325 µM): 1.02
- relative viability (NCI-H2085; first compound 2 µM): 0.984
- relative viability (NCI-H2085; first compound 6.325 µM): 0.84
- relative viability (NCI-H2085; first compound 20 µM): 0.882
- relative viability (NCI-H322M; first compound 0.2 µM): 0.771
- relative viability (NCI-H322M; first compound 0.6325 µM): 0.737
- relative viability (NCI-H322M; first compound 2 µM): 0.836
- relative viability (NCI-H322M; first compound 6.325 µM): 0.74
- relative viability (NCI-H322M; first compound 20 µM): 0.834
- relative viability (NCI-H2405; first compound 0.2 µM): 0.787
- relative viability (NCI-H2405; first compound 0.6325 µM): 0.85
- relative viability (NCI-H2405; first compound 2 µM): 0.739
- relative viability (NCI-H2405; first compound 6.325 µM): 0.76
- relative viability (NCI-H2405; first compound 20 µM): 0.644
- relative viability (201T; first compound 0.2 µM): 1
- relative viability (201T; first compound 0.6325 µM): 1.03
- relative viability (201T; first compound 2 µM): 1.02
- relative viability (201T; first compound 6.325 µM): 0.942
- relative viability (201T; first compound 20 µM): 1.29
- relative viability (NCI-H661; first compound 0.2 µM): 0.728
- relative viability (NCI-H661; first compound 0.6325 µM): 0.847
- relative viability (NCI-H661; first compound 2 µM): 0.655
- relative viability (NCI-H661; first compound 6.325 µM): 0.472
- relative viability (NCI-H661; first compound 20 µM): 0.305
- relative viability (NCI-H1355; first compound 0.2 µM): 0.89
- relative viability (NCI-H1355; first compound 0.6325 µM): 0.805
- relative viability (NCI-H1355; first compound 2 µM): 0.924
- relative viability (NCI-H1355; first compound 6.325 µM): 0.672
- relative viability (NCI-H1355; first compound 20 µM): 0.359
- relative viability (LU99A; first compound 0.2 µM): 0.488
- relative viability (LU99A; first compound 0.6325 µM): 0.495
- relative viability (LU99A; first compound 2 µM): 0.459
- relative viability (LU99A; first compound 6.325 µM): 0.487
- relative viability (LU99A; first compound 20 µM): 0.327
- relative viability (NCI-H650; first compound 0.2 µM): 1.19
- relative viability (NCI-H650; first compound 0.6325 µM): 1.1
- relative viability (NCI-H650; first compound 2 µM): 1.27
- relative viability (NCI-H650; first compound 6.325 µM): 1.04
- relative viability (NCI-H650; first compound 20 µM): 0.396
- relative viability (NCI-H2009; first compound 0.2 µM): 1.14
- relative viability (NCI-H2009; first compound 0.6325 µM): 1.21
- relative viability (NCI-H2009; first compound 2 µM): 1.23
- relative viability (NCI-H2009; first compound 6.325 µM): 1.04
- relative viability (NCI-H2009; first compound 20 µM): 0.987
- relative viability (NCI-H23; first compound 0.2 µM): 0.653
- relative viability (NCI-H23; first compound 2 µM): 0.555
- relative viability (NCI-H23; first compound 6.325 µM): 0.606
- relative viability (NCI-H23; first compound 20 µM): 0.203
- relative viability (NCI-H2228; first compound 0.2 µM): 0.76
- relative viability (NCI-H2228; first compound 0.6325 µM): 1.09
- relative viability (NCI-H2228; first compound 2 µM): 0.666
- relative viability (NCI-H2228; first compound 6.325 µM): 0.335
- relative viability (NCI-H2228; first compound 20 µM): 0.197
- relative viability (NCI-H2126; first compound 0.2 µM): 0.708
- relative viability (NCI-H2126; first compound 0.6325 µM): 0.756
- relative viability (NCI-H2126; first compound 2 µM): 0.776
- relative viability (NCI-H2126; first compound 6.325 µM): 0.758
- relative viability (NCI-H2126; first compound 20 µM): 0.727
- relative viability (HCC-78; first compound 0.2 µM): 0.329
- relative viability (HCC-78; first compound 0.6325 µM): 0.388
- relative viability (HCC-78; first compound 2 µM): 0.362
- relative viability (HCC-78; first compound 6.325 µM): 0.365
- relative viability (HCC-78; first compound 20 µM): 0.359
- relative viability (BEN; first compound 0.2 µM): 1.13
- relative viability (BEN; first compound 0.6325 µM): 0.99
- relative viability (BEN; first compound 2 µM): 1.21
- relative viability (BEN; first compound 6.325 µM): 1.01
- relative viability (BEN; first compound 20 µM): 0.445
- relative viability (EPLC-272H; first compound 0.2 µM): 0.968
- relative viability (EPLC-272H; first compound 0.6325 µM): 0.769
- relative viability (EPLC-272H; first compound 2 µM): 0.973
- relative viability (EPLC-272H; first compound 6.325 µM): 0.958
- relative viability (EPLC-272H; first compound 20 µM): 0.294
- relative viability (PC-14; first compound 0.2 µM): 0.886
- relative viability (PC-14; first compound 0.6325 µM): 0.92
- relative viability (PC-14; first compound 2 µM): 0.847
- relative viability (PC-14; first compound 6.325 µM): 0.878
- relative viability (PC-14; first compound 20 µM): 0.383
- relative viability (HCC-15; first compound 0.2 µM): 0.989
- relative viability (HCC-15; first compound 0.6325 µM): 0.838
- relative viability (HCC-15; first compound 2 µM): 0.967
- relative viability (HCC-15; first compound 6.325 µM): 0.481
- relative viability (HCC-15; first compound 20 µM): 0.125
- relative viability (NCI-H460; first compound 0.2 µM): 0.43
- relative viability (NCI-H460; first compound 0.6325 µM): 0.549
- relative viability (NCI-H460; first compound 2 µM): 0.456
- relative viability (NCI-H460; first compound 6.325 µM): 0.204
- relative viability (NCI-H460; first compound 20 µM): 0.0234
